The record followed here is patent US8268821B2, “Methods and compositions” (priority 2003, dated 2012).

This assay has as its system cancer-related neuropathic pain. Briefly: Open label dose escalation study of flupirtine, case studies JE and RM. The note with it: RM; ketamine for six days prior to the flupirtine trial.

For `CNC1(c2ccccc2Cl)CCCCC1=O` (stereo not shown) [ketamine], the pain control entry is on record as “failed to control pain”.
